Measurements taken from ChEMBL document CHEMBL4414606, “Bioactive Streptoglutarimides A-J from the Marine-Derived Streptomyces sp. ZZ741” (J Nat Prod, 2019).
In brackets after ≈: the same amount, converted by molar mass.

What was measured:
Staphylococcus aureus = assay: Antibacterial activity against methicillin resistant Staphylococcus aureus assessed as reduction in bacterial growth incubated for 12 hrs by microdilution method; type: functional
Escherichia coli = assay: Antibacterial activity against Escherichia coli assessed as reduction in bacterial growth incubated for 12 hrs by microdilution method; type: functional
U-251 = assay: Antiproliferative activity against human U251 cells assessed as reduction in cell viability after 72 hrs by SRB assay; type: functional, cell-based
U-87 MG = assay: Antiproliferative activity against human U87MG cells assessed as reduction in cell viability after 72 hrs by SRB assay; type: functional, cell-based, U-87MG ATCC
Candida albicans = assay: Antifungal activity against Candida albicans assessed as reduction in fungal growth incubated for 12 hrs by microdilution method; type: functional
[1] = Homo sapiens, U-251, 72 h, read-out: IC50
[2] = Homo sapiens, U-87 MG, 72 h, read-out: IC50

Row | Molecule | MIC (Staphylococcus aureus) [µg/mL] | MIC (Escherichia coli) [µg/mL] | IC50 (U-251; u-251) | IC50 (U-87 MG; u-87mg atcc) | MIC (Candida albicans) [µg/mL] | IC50 (U-251; [1]) [µM] | IC50 (U-87 MG; [2]) [µM]
1 | CN[C@H](CC(C)C)C(=O)N[C@H]1C(=O)N[C@@H](CC(N)=O)C(=O)N[C@H]2C(=O)N[C@H]3C(=O)N[C@H](C(=O)N[C@H](C(=O)O)c4cc(O)cc(O)c4-c4cc3ccc4O)[C@H](O)c3ccc(c(Cl)c3)Oc3cc2cc(c3O[C@@H]2O[C@H](CO)[C@@H](O)[C@H](O)[C@H]2O[C@H]2C[C@](C)(N)[C@H](O)[C@H](C)O2)Oc2ccc(cc2Cl)[C@H]1O [VANCOMYCIN] | 0.2 (≈ 0.138 µM) |  |  |  |  |  | 
2 | GENTAMICIN |  | 1.25 |  |  |  |  | 
3 | C[C@H](CO)C[C@@]1(C)OC(CC2(O)CC(=O)NC(=O)C2)=CC1=O | 9 (≈ 28.9 µM) | 10 (≈ 32.1 µM) | Not Active | Not Active | 20 (≈ 64.2 µM) |  | 
4 | C[C@@H]1C/C(=C/CC2CC(=O)NC(=O)C2)C(=O)[C@@H](C)[C@@H]1O | 10 (≈ 35.8 µM) | 10 (≈ 35.8 µM) | Not Active | Not Active | 18 (≈ 64.4 µM) |  | 
5 | C[C@H]1C[C@H]([C@H](O)CC2CC(=O)NC(=O)C2)C(=O)[C@@](C)(O)C1 | 11 (≈ 37 µM) | 9 (≈ 30.3 µM) | Not Active | Not Active | 12 (≈ 40.4 µM) |  | 
6 | C[C@H]1C[C@@](C)(O)C[C@@H]([C@H](O)CC2CC(=O)NC(=O)C2)C1=O | 10 (≈ 33.6 µM) | 10 (≈ 33.6 µM) |  |  | 18 (≈ 60.5 µM) | 0.05 | 0.22
7 | C[C@@H]1C[C@](C)(CO)O/C1=C\C(=O)CC1CC(=O)NC(=O)C1 | 9 (≈ 30.5 µM) | 9 (≈ 30.5 µM) | Not Active | Not Active | 16 (≈ 54.2 µM) |  | 
8 | C[C@](O)(CO)C[C@@]1(C)OC(CC2CC(=O)NC(=O)C2)=CC1=O | 10 (≈ 32.1 µM) | 12 (≈ 38.5 µM) | Not Active | Not Active | 18 (≈ 57.8 µM) |  | 
9 | C[C@@H]1C[C@@H]([C@H](O)CC2CC(=O)NC(=O)C2)C(=O)[C@@H](C)[C@@H]1O | 9 (≈ 30.3 µM) | 10 (≈ 33.6 µM) |  |  | 15 (≈ 50.4 µM) | 1.5 | 3.8
10 | C[C@H](CO)C[C@@]1(C)OC(CC2CC(=O)NC(=O)C2)=CC1=O | 10 (≈ 33.9 µM) | 8 (≈ 27.1 µM) | Not Active | Not Active | 8 (≈ 27.1 µM) |  | 
11 | C[C@H](CO)[C@@H]1OC(CC2CC(=O)NC(=O)C2)=CC(=O)[C@H]1C | 10 (≈ 33.9 µM) | 12 (≈ 40.6 µM) | Not Active | Not Active | 18 (≈ 60.9 µM) |  | 
12 | COc1cccc2c1C(=O)c1c(O)c3c(c(O)c1C2=O)C[C@@](O)(C(=O)CO)C[C@@H]3O[C@H]1C[C@H](N)[C@H](O)[C@H](C)O1 [DOXORUBICIN] |  |  |  |  |  | 6.8 | 1.6
13 | C[C@@H]1[C@H](O)[C@@H](C)/C=C/C=C/C=C/C=C/C=C/C=C/C=C/[C@H](O[C@@H]2O[C@H](C)[C@@H](O)[C@H](N)[C@@H]2O)C[C@@H]2O[C@](O)(C[C@@H](O)C[C@@H](O)[C@H](O)CC[C@@H](O)C[C@@H](O)CC(=O)O[C@H]1C)C[C@H](O)[C@H]2C(=O)O [AMPHOTERICIN B] |  |  |  |  | 0.75 (≈ 0.812 µM) |  | 
14 | C[C@@H]1C[C@@](C)(CO)O/C1=C\C(=O)CC1CC(=O)NC(=O)C1 | 11 (≈ 37.2 µM) | 9 (≈ 30.5 µM) | Not Active | Not Active | 20 (≈ 67.7 µM) |  | 
15 | CC1=C[C@@](C)(CO)O/C1=C\C(=O)CC1CC(=O)NC(=O)C1 | 10 (≈ 34.1 µM) | 8 (≈ 27.3 µM) | Not Active | Not Active | 15 (≈ 51.1 µM) |  | 
